Test results taken from article PMC10243098 (Journal of medicinal chemistry, 2023).

How the values were obtained:
[1] = molecular target: HAT1/Rbap46 enzyme complex (Homo sapiens, UniProt O14929); test: HAT1 acetyl-click assay
GCN5 = GCN5 (Homo sapiens, UniProt Q92830); test: Other acetyltransferase assay; assay type: biochemical; conditions: up to 100 μM
MYST4/KAT6b = MYST4/KAT6b (Homo sapiens, UniProt Q8WYB5); test: Other acetyltransferase assay; assay type: biochemical; conditions: up to 100 μM
H4K12Ac in A549 tumors = test: H4K12Ac immunofluorescence in A549 tumors after single i.p. dose; conditions: tumors harvested 24 hours later
[2] = Dose-finding tolerability, single i.p. injection; conditions: mice
A549 tumors = test: A549 xenograft tumor growth; conditions: 50 mg/kg and 100 mg/kg i.p. once every three days; p < 0.0001
PCAF = PCAF (Homo sapiens, UniProt Q92831); test: Other acetyltransferase assay; assay type: biochemical; conditions: up to 100 μM
FAD-dependent oxidase = test: FAD oxidase reaction; assay type: biochemical; conditions: 0.01 μM FAD
[3] = mouse, in vivo, ip
[4] = Plasma pharmacokinetics after single i.p. injection; conditions: female, CD1, mouse, intraperitoneal, 100 mg/kg
[5] = system: H4 lysine 5 and 12 acetylation; test: Nascent histone H4 acetylation in hTert-HME1 cells; assay type: cell-based, human; conditions: hTert-HME1, 12 hours
KAT5 = KAT5 (Homo sapiens, UniProt Q92993); test: Other acetyltransferase assay; assay type: biochemical; conditions: up to 100 μM
HCC1806 cells = test: Cell growth inhibition; assay type: cell-based, human

Chain of HAT1/Rbap46 enzyme complex (O14929 whole entry): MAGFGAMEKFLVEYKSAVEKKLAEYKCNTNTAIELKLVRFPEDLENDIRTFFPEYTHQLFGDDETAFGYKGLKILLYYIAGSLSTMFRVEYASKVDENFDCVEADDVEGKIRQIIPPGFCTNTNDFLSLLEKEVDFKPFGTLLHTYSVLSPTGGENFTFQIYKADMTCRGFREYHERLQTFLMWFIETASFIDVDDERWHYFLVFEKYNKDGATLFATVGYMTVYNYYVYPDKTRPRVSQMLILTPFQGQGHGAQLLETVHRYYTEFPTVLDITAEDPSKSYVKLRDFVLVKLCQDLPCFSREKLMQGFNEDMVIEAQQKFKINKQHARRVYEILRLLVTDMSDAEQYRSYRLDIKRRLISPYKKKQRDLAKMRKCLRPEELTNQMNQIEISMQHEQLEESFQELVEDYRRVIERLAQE
Chain of HAT1/Rbap46 enzyme complex (Q16576 whole entry partner): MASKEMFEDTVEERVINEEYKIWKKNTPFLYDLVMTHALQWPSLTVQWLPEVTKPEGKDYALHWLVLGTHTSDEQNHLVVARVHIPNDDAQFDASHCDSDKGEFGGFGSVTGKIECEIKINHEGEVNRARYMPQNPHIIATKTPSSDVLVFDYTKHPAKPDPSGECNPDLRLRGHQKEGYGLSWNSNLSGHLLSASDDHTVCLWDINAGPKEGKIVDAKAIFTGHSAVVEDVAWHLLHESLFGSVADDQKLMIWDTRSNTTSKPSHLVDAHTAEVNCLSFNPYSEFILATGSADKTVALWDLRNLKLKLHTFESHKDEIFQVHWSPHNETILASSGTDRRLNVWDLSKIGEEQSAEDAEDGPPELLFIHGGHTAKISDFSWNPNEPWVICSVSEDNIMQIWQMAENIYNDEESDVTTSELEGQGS
Chain of PCAF (Q92831 whole entry): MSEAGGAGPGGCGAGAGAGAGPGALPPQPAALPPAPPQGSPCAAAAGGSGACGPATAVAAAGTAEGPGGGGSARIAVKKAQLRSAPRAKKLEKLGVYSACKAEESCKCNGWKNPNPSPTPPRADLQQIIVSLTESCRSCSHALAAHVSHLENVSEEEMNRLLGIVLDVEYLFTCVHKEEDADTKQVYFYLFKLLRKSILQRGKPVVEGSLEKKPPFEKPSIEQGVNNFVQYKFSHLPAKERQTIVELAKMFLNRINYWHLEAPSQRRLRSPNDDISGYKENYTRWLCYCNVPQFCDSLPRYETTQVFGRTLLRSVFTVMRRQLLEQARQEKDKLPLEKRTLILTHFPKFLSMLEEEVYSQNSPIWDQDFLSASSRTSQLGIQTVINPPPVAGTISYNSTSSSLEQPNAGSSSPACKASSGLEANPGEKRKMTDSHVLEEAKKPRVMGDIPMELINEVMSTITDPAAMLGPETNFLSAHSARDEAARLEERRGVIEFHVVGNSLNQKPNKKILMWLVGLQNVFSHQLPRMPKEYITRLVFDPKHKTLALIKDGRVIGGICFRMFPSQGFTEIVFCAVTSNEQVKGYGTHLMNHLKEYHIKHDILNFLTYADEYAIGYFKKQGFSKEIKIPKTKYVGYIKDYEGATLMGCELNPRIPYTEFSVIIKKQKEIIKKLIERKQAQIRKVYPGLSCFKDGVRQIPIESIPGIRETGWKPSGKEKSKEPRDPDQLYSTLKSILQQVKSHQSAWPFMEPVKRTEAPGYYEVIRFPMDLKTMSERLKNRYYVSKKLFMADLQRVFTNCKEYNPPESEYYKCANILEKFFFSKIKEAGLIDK
Chain of GCN5 (Q92830 whole entry): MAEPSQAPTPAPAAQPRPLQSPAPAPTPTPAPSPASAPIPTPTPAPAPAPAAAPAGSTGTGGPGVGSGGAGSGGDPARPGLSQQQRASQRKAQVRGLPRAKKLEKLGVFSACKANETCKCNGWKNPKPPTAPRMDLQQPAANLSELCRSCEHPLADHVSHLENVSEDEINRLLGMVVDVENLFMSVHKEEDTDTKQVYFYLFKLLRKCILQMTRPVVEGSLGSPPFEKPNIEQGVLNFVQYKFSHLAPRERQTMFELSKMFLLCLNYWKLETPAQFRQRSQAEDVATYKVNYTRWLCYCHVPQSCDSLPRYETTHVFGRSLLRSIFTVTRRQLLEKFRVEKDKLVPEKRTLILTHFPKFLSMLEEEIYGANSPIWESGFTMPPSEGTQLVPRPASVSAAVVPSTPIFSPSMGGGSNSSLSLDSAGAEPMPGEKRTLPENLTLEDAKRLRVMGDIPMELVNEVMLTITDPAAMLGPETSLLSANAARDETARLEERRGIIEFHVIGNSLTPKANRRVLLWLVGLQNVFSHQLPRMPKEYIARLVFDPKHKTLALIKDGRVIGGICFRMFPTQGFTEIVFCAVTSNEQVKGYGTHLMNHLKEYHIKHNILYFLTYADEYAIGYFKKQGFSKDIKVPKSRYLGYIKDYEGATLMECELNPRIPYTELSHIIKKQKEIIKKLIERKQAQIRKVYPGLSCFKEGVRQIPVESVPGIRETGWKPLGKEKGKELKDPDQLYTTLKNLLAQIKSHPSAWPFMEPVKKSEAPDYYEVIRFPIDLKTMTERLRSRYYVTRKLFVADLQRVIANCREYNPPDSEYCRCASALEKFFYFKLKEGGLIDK
Chain of MYST4/KAT6b (Q8WYB5 whole entry): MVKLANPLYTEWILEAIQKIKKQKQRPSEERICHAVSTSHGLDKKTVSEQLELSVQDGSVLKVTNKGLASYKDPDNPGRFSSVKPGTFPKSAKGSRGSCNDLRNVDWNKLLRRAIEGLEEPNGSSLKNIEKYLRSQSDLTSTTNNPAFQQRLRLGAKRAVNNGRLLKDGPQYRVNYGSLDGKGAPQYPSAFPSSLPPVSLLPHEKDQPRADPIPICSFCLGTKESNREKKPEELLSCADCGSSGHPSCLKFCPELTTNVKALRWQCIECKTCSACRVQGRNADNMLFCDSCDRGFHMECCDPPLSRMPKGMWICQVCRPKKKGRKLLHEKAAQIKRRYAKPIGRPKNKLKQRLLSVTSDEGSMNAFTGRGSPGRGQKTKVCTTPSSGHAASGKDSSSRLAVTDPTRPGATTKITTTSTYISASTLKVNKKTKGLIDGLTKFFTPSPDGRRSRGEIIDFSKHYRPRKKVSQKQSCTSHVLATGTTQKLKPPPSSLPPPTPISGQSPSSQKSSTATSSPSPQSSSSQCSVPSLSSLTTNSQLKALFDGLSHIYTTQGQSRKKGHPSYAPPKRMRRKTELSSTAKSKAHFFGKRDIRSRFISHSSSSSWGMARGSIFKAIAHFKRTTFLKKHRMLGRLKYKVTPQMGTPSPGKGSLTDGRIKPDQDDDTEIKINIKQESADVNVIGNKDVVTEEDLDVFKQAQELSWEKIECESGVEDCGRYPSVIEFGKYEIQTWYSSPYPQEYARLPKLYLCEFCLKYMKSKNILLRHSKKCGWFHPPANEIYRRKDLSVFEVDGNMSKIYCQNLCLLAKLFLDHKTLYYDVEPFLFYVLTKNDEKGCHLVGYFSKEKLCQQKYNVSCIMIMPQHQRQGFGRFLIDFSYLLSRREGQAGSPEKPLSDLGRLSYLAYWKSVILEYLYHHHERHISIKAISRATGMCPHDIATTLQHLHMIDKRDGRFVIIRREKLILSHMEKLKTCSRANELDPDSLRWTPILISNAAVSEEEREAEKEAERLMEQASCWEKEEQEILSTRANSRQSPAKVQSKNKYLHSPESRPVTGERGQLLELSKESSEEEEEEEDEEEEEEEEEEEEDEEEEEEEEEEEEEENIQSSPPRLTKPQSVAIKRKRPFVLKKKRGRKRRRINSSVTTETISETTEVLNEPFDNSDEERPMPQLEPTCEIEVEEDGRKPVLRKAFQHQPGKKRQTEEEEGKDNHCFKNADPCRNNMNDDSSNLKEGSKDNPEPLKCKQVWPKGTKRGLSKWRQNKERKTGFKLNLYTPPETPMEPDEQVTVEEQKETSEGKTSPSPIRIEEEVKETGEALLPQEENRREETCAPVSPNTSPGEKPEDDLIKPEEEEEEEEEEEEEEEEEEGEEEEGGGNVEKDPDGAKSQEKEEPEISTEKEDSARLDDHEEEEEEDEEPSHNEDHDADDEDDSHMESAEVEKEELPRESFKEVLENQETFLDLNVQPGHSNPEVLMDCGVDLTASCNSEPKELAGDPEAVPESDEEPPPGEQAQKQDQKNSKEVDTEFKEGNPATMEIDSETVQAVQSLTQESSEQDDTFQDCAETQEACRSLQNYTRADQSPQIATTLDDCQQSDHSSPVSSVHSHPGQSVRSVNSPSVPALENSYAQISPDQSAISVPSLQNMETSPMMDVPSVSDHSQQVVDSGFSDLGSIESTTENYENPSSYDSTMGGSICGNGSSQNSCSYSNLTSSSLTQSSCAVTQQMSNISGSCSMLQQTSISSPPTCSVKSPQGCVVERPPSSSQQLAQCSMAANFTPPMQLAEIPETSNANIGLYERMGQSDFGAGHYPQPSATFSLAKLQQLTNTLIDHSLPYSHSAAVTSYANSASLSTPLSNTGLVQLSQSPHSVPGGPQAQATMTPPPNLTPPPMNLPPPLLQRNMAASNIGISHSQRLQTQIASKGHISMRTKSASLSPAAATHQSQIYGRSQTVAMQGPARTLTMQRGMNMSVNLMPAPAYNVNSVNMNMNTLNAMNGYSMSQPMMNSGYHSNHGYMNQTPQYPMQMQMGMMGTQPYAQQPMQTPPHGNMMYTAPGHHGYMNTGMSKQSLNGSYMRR
Chain of KAT5 (Q92993 whole entry): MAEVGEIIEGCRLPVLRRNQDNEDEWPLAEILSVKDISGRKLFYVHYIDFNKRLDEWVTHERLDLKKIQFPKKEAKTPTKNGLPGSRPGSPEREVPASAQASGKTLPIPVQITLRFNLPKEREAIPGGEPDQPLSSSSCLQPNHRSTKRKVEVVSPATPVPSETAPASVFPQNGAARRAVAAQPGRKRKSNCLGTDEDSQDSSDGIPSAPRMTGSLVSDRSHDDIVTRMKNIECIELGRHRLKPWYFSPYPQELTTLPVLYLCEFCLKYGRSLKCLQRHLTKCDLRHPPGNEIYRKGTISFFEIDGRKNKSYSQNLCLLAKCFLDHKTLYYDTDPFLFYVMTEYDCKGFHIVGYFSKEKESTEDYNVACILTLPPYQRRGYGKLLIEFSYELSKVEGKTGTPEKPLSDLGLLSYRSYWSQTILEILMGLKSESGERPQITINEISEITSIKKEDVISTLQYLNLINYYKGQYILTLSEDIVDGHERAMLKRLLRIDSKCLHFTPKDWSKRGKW

Compound: 3-(3-(7-Chloro-8-ethyl-2,4-dioxo-3,4-dihydrobenzo[g]pteridin-10(2H)-yl)propoxy)benzonitrile [Compound 37i]
- HAT1 inhibitory activity (in words) [1]: interfered with enzyme inhibition

Compound: CCc1cc2c(cc1Cl)nc1c(=O)[nH]c(=O)nc-1n2CCOCc1cccc(F)c1 [Compound 20b, 7-Chloro-8-ethyl-10-(2-((3-fluorobenzyl)oxy)ethyl)benzo[g]pteridine-2,4(3H,10H)-dione]
- HAT1 inhibitory activity (in words) [1]: interfered with enzyme inhibition

Compound: CCc1cc2c(cc1Cl)nc1c(=O)[nH]c(=O)nc-1n2CCOCc1ccc(C#N)cc1 [Compound 24g, 4-((2-(7-Chloro-8-ethyl-2,4-dioxo-3,4-dihydrobenzo[g]pteridin-10(2H)-yl)ethoxy)methyl)benzonitrile]
- HAT1 inhibitory activity (in words) [1]: interfered with enzyme inhibition

Compound: Cc1cc2nc3c(=O)[nH]c(=O)nc-3n(C[C@H](O)[C@H](O)[C@H](O)COP(=O)(O)OP(=O)(O)OC[C@H]3O[C@@H](n4cnc5c(N)ncnc54)[C@H](O)[C@@H]3O)c2cc1C [FAD, flavin-adenine-dinucleotide, reference compound]
- HAT1 inhibitory activity (in words) [1]: no detectable inhibitory activity

Compound: Cc1cc2nc3c(=O)[nH]c(=O)nc-3n(C[C@H](O)[C@H](O)[C@H](O)COP(=O)(O)O)c2cc1C [FMN, flavin-mononucleotide, reference compound]
- HAT1 inhibitory activity (in words) [1]: no detectable inhibitory activity

Compound: CCc1cc2c(cc1Cl)nc1c(=O)[nH]c(=O)nc-1n2CCOCC(C)C [JG-2016, 7-Chloro-8-ethyl-10-(2-isobutoxyethyl)benzo[g]pteridine-2,4(3H,10H)-dione]
- inhibitory activity towards GCN5 (GCN5): minimal or undetectable inhibitory activity
- inhibitory activity towards MYST4/KAT6b (MYST4/KAT6b): minimal or undetectable inhibitory activity
- H4K12Ac signal in tumors (H4K12Ac in A549 tumors): dose-dependent decrease
- dose at which signs of distress were observed [2]: 500 mg/kg
- tumor growth versus vehicle (A549 tumors): significantly impaired tumor growth
- inhibitory activity towards PCAF (PCAF): minimal or undetectable inhibitory activity
- inhibition of FAD-dependent oxidase (FAD-dependent oxidase): no significant inhibitory activity
- tolerated dose with minimal toxicity [3]: up to 250 mg/kg
- concentration at 72 h [4]: 2050 ± 233 nM
- H4 lysine 5 and 12 acetylation in cells [5]: dose-dependent inhibition
- inhibitory activity towards KAT5 (KAT5): minimal or undetectable inhibitory activity

Compound: CC(=O)SCCNC(=O)CCNC(=O)[C@H](O)C(C)(C)COP(=O)(O)OP(=O)(O)OC[C@H]1O[C@@H](n2cnc3c(N)ncnc32)[C@H](O)[C@@H]1OP(=O)(O)O [acetyl-CoA]
- preference of enzyme for native cofactor versus 4-pentynoyl-CoA [1]: > 100 fold
- suppression of pentynoylated product ([1]; 1 μM acetyl-CoA, 100 μM 4-pentynoyl-CoA): completely suppressed

Compound: Cc1cc2nc3[nH]c(=O)[nH]c(=O)c3nc2cc1C [di-methyl-alloxazine, reference compound]
- HAT1 inhibitory activity (in words) [1]: no detectable inhibitory activity

Compound: Cc1cc2nc3c(=O)[nH]c(=O)nc-3n(C[C@H](O)[C@H](O)[C@H](O)CO)c2cc1N(C)C [roseoflavin, reference compound]
- cell growth inhibitory activity (in words) (HCC1806 cells): strong cell growth inhibitory properties
- HAT1 inhibitory activity (in words) [1]: inactive
